Experiments:
[1] = Pharmacokinetics of aerosolized CL27c (analysis of lung delivery); type: in vivo, C57BL/6J mice; settings: for Lung concentration / Plasma concentration: label = analyte; for detectability in plasma after inhalation: aerosolized CL27c, traces only 1 h after the highest dose
Protocol: (§1) To define whether this prodrug was suitable for inhaled administration, CL27c was studied to evaluate selected ADME (absorption, distribution, metabolism, and excretion) and pharmacokinetic properties. First, stability of CL27c and CL27e was analyzed in mouse plasma (Supplementary Table 1) and in mouse, rat, and human liver microsomes in the presence of nicotinamide adenine dinucleotide phosphate (NADPH; Supplementary Table 2). Next, clearance of CL27c was analyzed in C57BL/6J mice after either intra-venous or oral administration. […] Clearance of CL27c and CL27e after oral administration could not be determined due to their low bioavailability (Supplementary Table 3). Next, pharmacokinetics after inhalation was studied in C57BL/6J mice after delivering an aerosolized micro-suspension of CL27c. As shown in Table 1 and Supplementary Fig. 1b, CL27c dose-dependently reached the lungs and its metabolite CL27e was detectable after inhalation of the highest dose. […] Therefore, the inhaled prodrug promotes local effects but prevents systemic absorption of pharmacologically relevant amounts of the active compound.
Mice were subjected to a 30-min aerosolized treatment with CL27c or vehicle (0.5% tyloxapol/saline solution)-containing solutions, where tyloxapol was added to improve distribution in the lungs. Mice were anesthetized at 1, 3, and 6 h after aerosolized treatment, the trachea was exposed and a 1.7-mm-outside-diameter polyethylene catheter was inserted and they were subsequently sacrificed. A syringe with a needle (27 G) pretreated with heparin was inserted into the vena cava above the renal veins to collect blood. After the collection of blood, lungs were subjected to bronchoalveolar lavage with three different 500 µl aliquots of acetonitrile. At the same time blood samples were centrifuged 180× g at 22 °C for 10 min, plasma supernatant was collected and treated with 1 volume of acetonitrile to precipitate proteins. Samples were then agitated on a high-speed vortex for 2 min and further mixed using a rotary shaker for 2 min. the precipitated proteins were then pelleted by centrifugation at 10,000× g for 10 min and the supernatant was transferred in a new tube. BALF and plasma extracts were subsequently subjected to Liquid chromatography-mass spectrometry.
A Nexera LC-30AD (Shimadzu, Milan, Italy) instrument equipped with a Luna C18 150 × 2.1 mm, 3 µm particle size column (Phenomenex, Milan, Italy) was used to carry out chromatography analysis. The eluents (VWR, Milan, Italy) were acetonitrile (A) and 0.1% formic acid (B) in the following gradient conditions: from 10 to 54% of solvent A in 21 min, up to 100% of A in 2 min and re-equilibration. The injection volume was 10 µL, the flow rate was […] and the column was maintained at the temperature of 40 °C. For the chromatographic separation, an octadecylsilica column was used. The employed mass analyzer was a Q-trap used in multiple reaction-monitoring (MRM) mode. With this technique, it was possible to detect and quantify simultaneously the drug and the metabolite with high selectivity and sensitivity. A QTrap-5500 (Sciex, Milan, Italy) instrument, dressed with a Turbo Ion Spray source, was utilized to analyze samples. The source parameters were: curtain gas 30 (arbitrary units, a.u.), gas1 40 (a.u.), gas2 55 (a.u.), temperature 500 °C, ion spray voltage 5500 V, declustering potential 200 (a.u), and entrance potential 11 (a.u.). The detector was used in MRM mode and the transitions for each compound were: 446 > 418 m/z and 446 > 401 m/z for CL27C (collision energy 29, collision exit potential 26 and 28, respectively); 432 > 387 m/z and 432 > 404 m/z for CL27e (collision energy 30 and 28, collision exit potential 26 and 27, respectively).

[2] = Pharmacokinetics of a single dose of CL27c (i.v. or p.o.); type: in vivo, C57BL/6J mice; settings: for Cmax: plasma; for Cmax / AUClast / AUCtot / CL (apparent total body clearance) / F (bioavailability) / Tmax / Vss / Vz / t½ (elimination half-life): label = analyte
Protocol: as §1
Supplementary Table 3. Pharmacokinetic parameters of a single dose of CL27c […]
I.V. (10 mg/kg) P.O. (50 mg/kg) […]
Legend:I.V,. Intravenous administration; P.O., […]; Cmax, Maximum (peak) plasma drug concentration; AUClast Area under the plasma concentration-time curve from time zero to time of last measurable concentration; AUCtot Area under the plasma-concentration time curve; t½, Elimination half -life: CL, Apparent total body clearance of CL27c from plasma; Vz, Apparent volume of distribution during terminal phase; Vss, Apparent volume of distribution at steady state;F, Bioavalability.

class I PI3K = settings: purified proteins; cited from earlier work
[3] = In vitro plasma stability; type: in vitro ADME, mouse
Protocol: as §1
Supplementary Table 1. In vitro plasma half-life (t1/2), (mouse plasma).
Values are the mean of at least triplicate determination in a single experiment.

[4] = aerosolized 2 mg/ml CL27c, 1 h from exposure
[5] = aerosolized 2 mg/ml CL27c, 3 h from exposure
[6] = aerosolized 2 mg/ml CL27c, 6 h from exposure

O=C(O)c1cccc(Cn2cc(-c3cccc4c(=O)cc(N5CCOCC5)[nH]c34)nn2)c1 [CL27e]
Lung concentration [1, 4]: 4.5 ± 1.0 ng/g | Plasma concentration [1, 4]: 1.34 ± 0.62 ng/mL | Lung concentration [1, 5]: 0.1 ± 0.1 ng/g | Plasma concentration [1, 5]: <1 ng/mL | Lung concentration [1, 6]: 0.5 ± 0.2 ng/g | Plasma concentration [1, 6]: <1 ng/mL | detectability in plasma after inhalation [1]: generally undetectable | peak plasma concentration relative to CL27c ([2]; 5 min after i.v. administration of CL27c): twice more abundant than CL27c | Cmax ([2]; CL27c I.V. 10 mg/kg): 1900 ng/mL | AUClast ([2]; CL27c I.V. 10 mg/kg): 980 ng·h/mL | AUCtot ([2]; CL27c I.V. 10 mg/kg): 1050 ng·h/mL | CL (apparent total body clearance) ([2]; CL27c I.V. 10 mg/kg): 191 mL/min/kg | F (bioavailability) ([2]; CL27c I.V. 10 mg/kg): 91% | Tmax ([2]; CL27c I.V. 10 mg/kg): 4.8 min | Vss ([2]; CL27c I.V. 10 mg/kg): 13.55 L/kg | Vz ([2]; CL27c I.V. 10 mg/kg): 10.75 L/kg | t½ (elimination half-life) ([2]; CL27c I.V. 10 mg/kg): 75 min | Cmax ([2]; CL27c P.O. 50 mg/kg): 290 ng/mL | AUClast ([2]; CL27c P.O. 50 mg/kg): 260 ng·h/mL | AUCtot ([2]; CL27c P.O. 50 mg/kg): 280 ng·h/mL | F (bioavailability) ([2]; CL27c P.O. 50 mg/kg): 4.80% | Tmax ([2]; CL27c P.O. 50 mg/kg): 30 min | t½ (elimination half-life) ([2]; CL27c P.O. 50 mg/kg): 25.8 min | activity in PI3K enzymatic assay (class I PI3K): potent pan-class I PI3K inhibitor, acting at nanomolar concentration | Concentration in mouse plasma ([3]; time point 0 min): 45.3 ± 14.1 ng/mL | Concentration in mouse plasma ([3]; time point 30 min): 43.6 ± 7.4 ng/mL

COC(=O)c1cccc(Cn2cc(-c3cccc4c(=O)cc(N5CCOCC5)[nH]c34)nn2)c1 [CL27c]
Lung concentration ([1]; aerosolized 0.2 mg/ml CL27c, 1 h from exposure): 32.6 ± 5.1 ng/g | Lung concentration ([1]; aerosolized 0.2 mg/ml CL27c, 3 h from exposure): 10.9 ± 0.5 ng/g | Lung concentration ([1]; aerosolized 0.2 mg/ml CL27c, 6 h from exposure): 10.9 ± 1.8 ng/g | Lung concentration [1, 4]: 169.2 ± 17.7 ng/g | Plasma concentration [1, 4]: 1.2 ± 0.1 ng/mL | Lung concentration [1, 5]: 34.2 ± 5.2 ng/g | Lung concentration [1, 6]: 41.6 ± 6.5 ng/g | detectability in plasma after inhalation [1]: generally undetectable | Cmax ([2]; CL27c I.V. 10 mg/kg): 930 ng/mL | AUClast ([2]; CL27c I.V. 10 mg/kg): 870 ng·h/mL | AUCtot ([2]; CL27c I.V. 10 mg/kg): 870 ng·h/mL | CL (apparent total body clearance) ([2]; CL27c I.V. 10 mg/kg): 191 mL/min/kg | F (bioavailability) ([2]; CL27c I.V. 10 mg/kg): 100% | Tmax ([2]; CL27c I.V. 10 mg/kg): 4.8 min | Vss ([2]; CL27c I.V. 10 mg/kg): 13.55 L/kg | Vz ([2]; CL27c I.V. 10 mg/kg): 10.75 L/kg | t½ (elimination half-life) ([2]; CL27c I.V. 10 mg/kg): 39 min | Cmax ([2]; CL27c P.O. 50 mg/kg): 220 ng/mL | AUClast ([2]; CL27c P.O. 50 mg/kg): 150 ng·h/mL | AUCtot ([2]; CL27c P.O. 50 mg/kg): 390 ng·h/mL | F (bioavailability) ([2]; CL27c P.O. 50 mg/kg): 3.40% | Tmax ([2]; CL27c P.O. 50 mg/kg): 30 min | t½ (elimination half-life) ([2]; CL27c P.O. 50 mg/kg): 63 min | activity in PI3K enzymatic assay (class I PI3K): inactive | Concentration in mouse plasma ([3]; time point 0 min): 113.2 ± 12.8 ng/mL | Concentration in mouse plasma ([3]; time point 30 min): 6.2 ± 2.8 ng/mL
